Tests used:
[1] = tested on: ID8-luc ovarian tumor cells; assay: ID8-luc orthotopic syngeneic ovarian isograft model; assay type: in vivo, C57bl/6 mice; settings: carboplatin alone, 10 mg/kg weekly for three weeks; over 35 days
Method: ID8-luc model: Five-week-old C57bl/6 mice (Jackson labs strain 664) were acclimated for one week and injected intraperitoneally with […] luciferase expressing ID8 syngeneic ovarian tumor cells suspended in 200 μL of PBS under Medical College of Wisconsin animal protocol AUA6339. One week after injection, antibodies and/or chemotherapeutic agents were administered intraperitoneally at the indicated doses. Chemotherapeutic doses or vehicle were administered one day before control or therapeutic antibody doses. Imaging and analysis of luciferin radiance was done up to twice weekly on an IVIS Spectrum-CT Imaging System equipped with thermoelectrically-cooled CCD camera. Mice were monitored twice weekly for weight and signs of morbidity. Mice were euthanized after 45 days or upon signs of morbidity. Animal studies were conducted using the standards for humane treatment of animals as described in the U.S. Public Health Service Policy on Humane Care and Use of Laboratory Animals.
With disseminated peritoneal disease being the most common presentation upon recurrence of ovarian carcinoma, we utilized an orthotopic isograft model of disseminated peritoneal ovarian cancer. Human anti-CLPTM1L binding to luciferase-expressing ID8 ovarian tumor cells (ID8-luc) was detected by flow cytometry (FIG. 31A). […] Tumor load was monitored by luciferin luminescence using whole body imaging. […]

SL3 parental xenografts = assay: SL3 xenograft model, parental; assay type: in vivo, NU/J mice; settings: weekly 2.5 mg/kg cisplatin and/or 5 mg/kg 102-5; 24 days post-inoculation
Method: (§1) Four-week old female NU/J mice (2019, Jackson Laboratories) were acclimated for 1 week before injection of 0.5×10^6 parental SL3 or 1×10^6 cisplatin-resistant SL3-cis cells subcutaneously into the flank in 200 μL PBS. Tumors were measured with calipers and volumes were calculated by ½ (W×W×L). After tumors had grown to an average of 100 mm^3, mice were separated into groups of 5 mice, each group with 100 mm^3 average tumor sizes. Mice were treated weekly with intraperitoneal doses of PBS control, cisplatin 2.5 mg/kg, and/or 102-5 5 mg/kg in 200 μL of PBS at room temperature beginning on day 6 post-inoculation. Cisplatin treatments were administered 24 hours following antibody treatment. Tumor volume was measured at least weekly. Animal health was monitored daily and animal weights measured at least weekly. All procedures were reviewed and approved by MCW IACUC committee #2 under AUA6339.
(§2) J/NU mice xenografted with SL3 parental or SL3-cis platinum resistant cells were treated weekly with control vehicles, 2.5 mg/kg cisplatin, and/or 5 mg/kg 102-5 anti-CLPTM1L. The effects of cisplatin and those of 102-5 on cisplatin treatment were investigated in this model rather than those of carboplatin since the SL3cis line was developed specifically as a cisplatin resistant line.

[2] = tested on: SL3-cis platinum resistant xenografts; assay: SL3 xenograft model, cisplatin resistant; assay type: in vivo, NU/J mice; settings: weekly 2.5 mg/kg cisplatin and/or 5 mg/kg 102-5; 24 days post-inoculation
Method: as §1, §2

[3] = tested on: Caspase-3 cleavage and Akt phosphorylation in SL3cis; assay: Western blotting of SL3cis lysates for caspase cleavage and Akt phosphorylation; assay type: cell-based, human; settings: SL3cis spheroids
Method: (A) A2780 apoptotic killing (casp 3/7 live imaging) after 36 hour mAb treatment (scFv clones 102-4a left, 102-5a right) and 24-hour carboplatin treatment. (B) Dose-response to up to 20 μM carboplatin in resistant A2780 cells treated with either control IgG1 or 102-5, relative to 0 carboplatin controls. (C) Kinetic killing assay (live imaging) in A2780 with human anti-CLP™1L scFv and/or 10 μM carboplatin treatment. *p<0.05, **p<0.005, ***p<0.0005. (D) Western blotting and densitometry for Akt and phospho-Akt (T308) in A2780 andA2780cis. […]
Cells were lysed with 100 μL of 1× NP40 lysis buffer containing proteinase inhibitors, sheared 10 times with a 28-gauge needle, spun at 16,000×g for 30 minutes, normalized by protein concentration as determined by the Bradford method, and the supernatant boiled for 5 minutes. Twenty microliters of normalized lysate were resolved by SDS-PAGE on 10% acrylamide gels at 150 volts for 1 hour, transferred by iBlot dry transfer (Life Technologies), blocked for 2 hours with TBST 10% milk, incubated with primary antibodies at 1:1000 in TBST 5% milk at 4C overnight with rocking, washed 3×5 minutes with TBST, incubated with secondary anti-rabbit-HRP (Santa Cruz Biotechnology) or goat anti-human-HRP (Invitrogen MH1715) at 1:10,000 in TBST 5% milk for 2 hours with rocking, washed 5×10 minutes with TBST, and signal analyzed using a Biorad Chemidoc XRS. […]

Row | SMILES | tumor load [1] [fold] | tumor growth and volumes (SL3 parental xenografts) | tumor growth [2] | Akt phosphorylation at threonine 308 [3] | Caspase-3 cleavage ([3]; 16 days of growth)
1 | N.N.O=C([O-])C1(C(=O)[O-])CCC1.[Pt+2] [carboplatin, reference compound] | 1.23 |  |  |  | 
2 | N.N.[Cl][Pt][Cl] [cisplatin, reference compound] |  | significantly inhibited | significantly inhibited tumor growth only in combination therapy with 102-5 anti-CLPTM1L | induced by cisplatin treatment | Caspase-3 cleavage was induced
